Data as given in US20170281651A1, “CONCOMITANT ADMINISTRATION OF GLUCOCORTICOID RECEPTOR MODULATORS AND CYP3A OR STEROIDOGENESIS INHIBITORS” (Corcept Therapeutics, Inc., priority 2017, published 2017).

Key:
Assay type in all cases: in vivo, human
[1] = Example 1: effect of oral ketoconazole (400 mg OD or 200 mg BID) on plasma pharmacokinetics of a 300 mg single dose of mifepristone, fasted; conditions: for Cmax / AUC(0-t) / half-life / Tmax: male, human, plasma, oral; for AUC(0-t): read-out: AUCt (AUC0-24 hours, mean); for half-life: read-out: T1/2 (mean) (converted); for Tmax: read-out: Tmax (median)
Description: This study was an open-label study in healthy male subjects.
(§1) Healthy male volunteers between the ages of 18 to 45 years of age with a body mass index (BMI) ranging between 19 and 32 kg/m2 and a weight of at least 60 kg (132 lbs) were enrolled. Subjects had no clinically significant abnormal findings on the physical examination, ECG, blood pressure, heart rate, medical history, or clinical laboratory results during screening. The QTc interval at screening was less than 450 msec.
In cohort 1, six subjects received ketoconazole 400 mg OD for 14 days.
Subjects remained in the clinic on Days 2 and 3 to receive 400 mg OD oral ketoconazole fasted, and for safety evaluation and collection of blood pharmacokinetic (PK) samples. Subjects were discharged from the clinic on Day 4 following administration of 400 mg OD oral ketoconazole fasted, and returned to the clinic the mornings of Days 5 through 13 to receive 400 mg OD oral ketoconazole fasted.
In cohort 2, six subjects received ketoconazole 200 mg BID for 14 days. […] All 12 subjects completed the study. Cohort 2 subjects participated in a Screening visit to assess eligibility and a check-in Day (Day −1) during which eligibility was re-confirmed. […] The evening of Day 1, subjects received 200 mg oral ketoconazole. Subjects remained in the clinic on Days 2, 3 and 4 to receive 200 mg BID oral ketoconazole, and for safety evaluation and collection of blood pharmacokinetic (PK) samples. Subjects were discharged from the clinic on Day 4 following evening administration of 200 mg oral ketoconazole, and returned to the clinic the morning and evening of Days 5 through 13 to receive 200 mg BID oral ketoconazole. Morning doses of ketoconazole on Days 0-13 were administered in the fasted state.
Subjects in both cohorts returned to the study center on Day 15 for safety monitoring, and completion of the Termination Visit procedures, followed by discharge from the study. Safety was assessed by spontaneously reported adverse events, physical examinations, and routine clinical laboratory tests. To the extent possible, any adverse events deemed study drug-related and that were ongoing at the time of discharge from the study were followed-up to resolution or until a determination is made that the unresolved event was stable.
Descriptive statistics (count, mean, median, standard deviation, minimum, maximum, and % coefficient of variation) were provided. […] Comparisons with previous study data were made.

[2] = Example 2: effect of a 400 mg single dose of ketoconazole on PK of an 8-day regimen of 300 mg or 600 mg OD mifepristone, moderate fat breakfast; conditions: for Cmax / AUC(0-t) / Tmax / half-life: male, human, plasma, oral; for AUC(0-t): read-out: AUCt (AUC0-24 hours, mean); for Tmax: read-out: Tmax (median); for half-life: read-out: T1/2 (mean) (converted)
Description: (§2) This was an open-label study in healthy male subjects. […] The 400 mg single dose of ketoconazole was given to all subjects on day 8.
METHODOLOGY: Twelve subjects were enrolled, six in Cohort 1 and 6 in Cohort 2.
Subjects were discharged on Day 11.
Subjects were discharged on Day 11. Subjects in both cohorts returned to study center on Day 13 for safety monitoring, collection of the 120-hour PK draw, and completion of the Termination Visit procedures, followed by discharge from the study. To the extent possible, any adverse events deemed study drug-related and that were ongoing at the time of discharge from the study were followed-up to resolution or until a determination was made that the unresolved event was stable.
as §1, with “DIAGNOSIS AND MAIN […] FOR INCLUSION: Healthy” for “Healthy”
DURATION OF TREATMENT: Up to a total of 28 days, including up to 2 weeks screening, dosing on Days 1-8, safety observation, and PK sample collection through Day 13.
Additionally, comparisons were made between the PK results of cohort 1 and 2. Pharmacokinetic parameters Cmax, T1/2 and total AUC were calculated for plasma concentrations of ketoconazole following the single dose on Day 8. Descriptive statistics (count, mean, median, standard deviation, minimum, maximum, and % coefficient of variation) were provided. Ketoconazole concentrations were listed and summarized. GM means of Cmax and total AUC were compared for the single dose in this study to the combined data of reported 400 mg single doses of ketoconazole of healthy subjects from the literature.

[3] = Example 2: safety (adverse events, physical examinations, laboratory tests)
Description: as §2
Safety was assessed by spontaneously reported adverse events, physical examinations, and routine clinical laboratory tests. Adverse event data were tabulated. Physical findings and laboratory test results were listed by subject.

[4] = Example 3: safety (adverse events, laboratory tests, vital signs, ECG)
Description: A single dose of ketoconazole was administered on Day −1.

[5] = Examples 4-7: liver function of a patient with excess cortisol switched to reduced mifepristone dose plus ketoconazole
[6] = C2/C1 (Keto 200 mg BID vs 400 mg OD)
[7] = MIFE 300 mg single dose fasted + Keto 200 mg BID (Cohort 2)
[8] = MIFE 300 mg single dose fasted + Keto 400 mg OD (Cohort 1)
[9] = C1 Day 8/Day 7 (300 mg/d, with vs without 400 mg Keto)
[10] = C2 Day 8/Day 7 (600 mg/d, with vs without 400 mg Keto)
[11] = Cohort 1 (300 mg OD), Day 8 with 400 mg ketoconazole relative to Day 7 without
[12] = Cohort 2 (600 mg OD), Day 8 with 400 mg ketoconazole vs Day 7
[13] = Day 7 C2/C1 (600 vs 300 mg/d, no ketoconazole)
[14] = Day 8 C2/C1 (600 vs 300 mg/d, with 400 mg Keto)
[15] = Day 8 in the presence of 400 mg ketoconazole
[16] = 300 mg/d, MIFE 300 mg/d, C1 Day 7, no ketoconazole
[17] = 600 mg/d, MIFE 600 mg/d, C2 Day 7, no ketoconazole
[18] = MIFE 300 mg/d, C1 Day 8, + 400 mg Keto single dose
[19] = MIFE 600 mg/d, C2 Day 8, + 400 mg Keto single dose

SMILES: CC#C[C@]1(O)CC[C@H]2[C@@H]3CCC4=CC(=O)CCC4=C3[C@@H](c3ccc(N(C)C)cc3)C[C@@]21C [mifepristone, 11β-(4-dimethylaminophenyl)-17β-hydroxy-17α-(1-propynyl)-estra-4,9-dien-3-one]
- Mean Ratio AUCtotal (AUCinf, geometric mean ratio) [1, 6]: 1.05
- Mean Ratio Cmax (geometric mean ratio) [1, 6]: 1.15
- Terminal half-life Cohort 2 versus Cohort 1 ([1]; Keto 200 mg BID vs 400 mg OD): approximately the same
- Tmax Cohort 2 versus Cohort 1 ([1]; Keto 200 mg BID vs 400 mg OD): shorter
- AUCtot (AUCtotal, mean) [1, 7]: 130925 ng·h/mL
- AUCtot (AUCtotal, mean) [1, 8]: 116939 ng·h/mL
- Cmax [1, 7]: 4140 ng/mL
- AUC(0-t) [1, 7]: 40600 ng·h/mL
- half-life [1, 7]: 37.4 h
- Tmax [1, 7]: 1 h
- Cmax [1, 8]: 3400 ng/mL
- AUC(0-t) [1, 8]: 38100 ng·h/mL
- half-life [1, 8]: 37.1 h
- Tmax [1, 8]: 2 h
- Mean Ratio AUCt [2, 9]: 1.25
- Mean Ratio Cmax [2, 9]: 1.19
- Mean Ratio AUCt [2, 10]: 1.28
- Mean Ratio Cmax [2, 10]: 1.39
- increase in AUC0-24 [2, 11]: 25%
- increase in Cmax [2, 11]: 20%
- increase in AUC0-24 [2, 12]: 28%
- increase in Cmax [2, 12]: 39%
- Mean Ratio AUCt [2, 13]: 1.48
- Mean Ratio Cmax [2, 13]: 1.42
- AUC0-24 greater at 600 mg OD than at 300 mg OD ([2]; Day 7 without ketoconazole): 48%
- Cmax greater at 600 mg OD than at 300 mg OD ([2]; Day 7 without ketoconazole): 42%
- Mean Ratio AUCt [2, 14]: 1.52
- Mean Ratio Cmax [2, 14]: 1.65
- AUC0-24 greater at 600 mg OD than at 300 mg OD [2, 15]: 52%
- Cmax greater at 600 mg OD than at 300 mg OD [2, 15]: 65%
- half-life greater at 600 mg OD than at 300 mg OD [2, 15]: 13%
- Cmax [2, 16]: 2700 ng/mL
- AUC(0-t) [2, 16]: 37700 ng·h/mL
- Tmax [2, 16]: 3 h
- Cmax [2, 17]: 3820 ng/mL
- AUC(0-t) [2, 17]: 54200 ng·h/mL
- Tmax [2, 17]: 4 h
- Cmax [2, 18]: 3240 ng/mL
- AUC(0-t) [2, 18]: 47400 ng·h/mL
- half-life [2, 18]: 84.9 h
- Tmax [2, 18]: 2.1 h
- Cmax [2, 19]: 5260 ng/mL
- AUC(0-t) [2, 19]: 69100 ng·h/mL
- half-life [2, 19]: 96.2 h
- Tmax [2, 19]: 4 h
- TEAEs considered possibly or probably related to administration ([3]; four subjects in Cohort 2 (600 mg)): dizziness, nausea, vomiting, dry mouth, and rash
- SAE ([3]; mifepristone 300 or 600 mg OD 8 days + 400 mg ketoconazole Day 8): No subject experienced an SAE
- subjects with at least 1 TEAE ([3]; twelve subjects, mifepristone 300 or 600 mg OD 8 days + 400 mg ketoconazole Day 8): 50%
- subjects reporting at least one TEAE ([4]; during the mifepristone/ketoconazole treatment period): 57.1%
- subjects reporting at least one TEAE ([4]; during treatment with mifepristone alone (600 mg once daily)): 55.6%
- subjects with elevated laboratory test results reported as drug-related TEAEs ([4]; liver enzymes (one subject), creatinine (two subjects), from Day 14): Three subjects
- effects on hematology or urinalysis parameters, vital signs, or ECGs ([4]; multiple-dose mifepristone with or without multiple-dose ketoconazole): No clinically significant effects
- deaths or SAEs ([4]; whole study): No deaths or SAEs
- severe TEAEs ([4]; whole study): No severe TEAEs
- liver function of the patient ([5]; daily dose reduced from 600 mg to 300 mg with concomitant ketoconazole): not significantly compromised
- liver function of the patient ([5]; daily dose reduced from 900 mg to 600 mg with concomitant ketoconazole): not significantly compromised
- liver function of the patient ([5]; daily dose reduced from 1200 mg to 900 mg with concomitant ketoconazole): not significantly compromised
- liver function of the patient ([5]; daily dose reduced from 1500 mg to 1200 mg with concomitant ketoconazole): not significantly compromised
